Experimental findings from patent US20230219912A1, “HALOGENATED BENZOTHIADIAZINES FOR THE TREATMENT OF CANCER” (BOARD OF REGENTS OF THE UNIVERSITY OF NEBRASKA, priority 2020, published 2023) are described below.

Molecules are shown by their SMILES. “Also recorded” adds a separate entry of the source. Where two headings read alike, the source gives them in different places.

The test system of assay [1] is MDA-MB-468 triple negative breast cancer cells. As to the kind of experiment: MTS cytotoxicity assay in MDA-MB-468 triple negative breast cancer cells. Type of assay: cell-based. Conditions: for effect on MDA-MB 468 TNBC cell viability: 10, 50 and 100 μM for 24, 48 and 72 hours, MTS; for IC50: Homo sapiens, MDA-MB-468, 72 hours, mean ± SD n = 3. As to the method:
The assay was performed as follows.
Derivatives were dosed at 10, 50 and 100 μM for 24, 48 and 72 hours and cell viability measured by MTS assay (FIG. 5).
On the technique in general: Formazan colour is commonly taken as a measure of viable cells.

Assay [2] concerns VEGF-induced proliferation of HUVEC cells. Description: VEGF-induced HUVEC proliferation, MTT assay. Type of assay: cell-based, human. Conditions: for inhibition of VEGF-induced HUVEC proliferation (in words): 20 μM; for inhibition at 20 µM: Homo sapiens, read-out: % Inhibition of Proliferation. As to the method:
The assay was performed as follows. Vascular endothelial growth factor (VEGF, Cat #SRP3182) was purchased from Sigma. […] Stock solutions of all compounds were prepared in DMSO and were serially diluted for cell culture treatment maintaining the final DMSO concentration at less than 1%. Cell proliferation of HUVECs was evaluated through the MTT (3-[4, 5-dimethylthiazol-2-yl]-2, 5-dimethyltetrazolium bromide) colorimetric assay, as previously described.^28 The HUVECs were seeded at a density of 10,000 cells/well in 24 well plates in serum-containing medium and cultured overnight. Cells were starved with 300 μL of assay media (0.1% BSA+0.1% FBS in basal medium) for 24 h. Then, cells were treated with 500 μL of assay medium (control group), VEGF (10 ng/mL, positive control group) or VEGF along with compounds (20 μM). After 48 h of culture, 50 μL of MTT stock (5 mg/mL in PBS) was added to each well and incubated for 2 h at 37° C. to allow the formation of dark blue formazan crystals in the metabolically active cells. The medium was removed, the cells were washed with PBS (pH 7.4), and 100 μL of acidified isopropanol (0.33 mL HCl in 100 mL isopropanol) was added to each well and incubated for 5 min with thorough agitation to solubilize the formazan crystals. An equal volume of the solution was transferred to a 96-well plate and the absorbance was immediately measured using a microplate reader at a wavelength of 570 nm.

The target of assay [3] is T1, Mitochondrial respiratory complex II (Rattus norvegicus, UniProt P21913+Q641Z9+Q6PCT8+Q920L2).
T1 construct: measured spectrophotometrically using isolated rat heart mitochondria; from tissue; host or cells: rat heart mitochondria / sub-mitochondrial particles
As to the kind of experiment: Mitochondrial respiratory complex II inhibition assay. Type of assay: biochemical. Conditions: for inhibition at 100 µM: relative to DMSO control, read-out: inhibition of CII. As to the method:
The assay was performed as follows. Mitochondria were isolated either from fresh rat hearts or by differential centrifugation in sucrose-based buffer as previously described.^24 Complex II enzymatic activity was determined spectrophotometrically as the rate of succinate-driven, co-enzyme Q2-linked reduction of dichlorophenolindophenol (DCPIP).^49 Mitochondria or sub-mitochondrial particles were incubated in phosphate buffer (pH 7.4) containing 40 μM DCPIP, 1 mM KCN, 10 μM rotenone, and 50 μM co-enzyme Q2. The rate of reduction of DCPIP to DCPIPH2 was followed at […] (ε=21,000 M-1). Varying amounts of succinate and inhibitors were used to determine an IC50 value. At the end of each run thenoyltrifluoroacetone (1 mM) was added and the residual TTFA-insensitive rate subtracted.

Assay [4] concerns 22Rv1 prostate cancer cells. As to the kind of experiment: MTS cytotoxicity assay in 22Rv1 prostate cancer cells. Conditions: Homo sapiens, 22Rv1, 48 h, read-out: reduction of 22Rv1 cell viability. As to the method:
(§1) The assay was performed as follows. To determine the cell growth inhibition ability of the synthesized compounds the (3-(4,5-dimethylthiazol-2-yl)-5-(3-carboxymethoxyphenyl)-2-(4-sulfophenyl)-2H-tetrazolium) (MTS) assay used according to the manufacturer's recommended protocol. Stock solutions of the synthesized compounds were prepared in DMSO. Cells were seeded at a density of 1×10^5 cells in 96-well plates. After 24 hours, cells were treated at the indicated concentrations of test compounds, limiting the final DMSO concentration to less than 1%. After incubation at 37° C. in an environment of 5% CO2 for 48-72 hours, 10 μL of MTS reagent (CellTiter 96© AQueous One Solution Reagent) was added to each well and incubated at the above mentioned conditions for 2-4 hr. Absorbance was recorded at 490 nm on a BioTek Synergy Mx multimode plate reader and the viability of cells were plotted as percentage of controls.

Assay [5] concerns human embryonic kidney (HEK293) cells. Description: MTS cytotoxicity assay in HEK293 cells. To be noted: 72 hours, mean ± SD n = 3. Type of assay: cell-based. As to the method:
as §1
Cytotoxicity was also evaluated by using the low tumorigenic HEK293 cells at 50 μM concentration.

Setting [6] is: HUVEC, 48 h, 20 μM compound, VEGF 10 ng/mL, HUVEC, 48 h, relative to VEGF treated cells, mean ± SEM n = 3.

T1 sequence (Q920L2 35-656): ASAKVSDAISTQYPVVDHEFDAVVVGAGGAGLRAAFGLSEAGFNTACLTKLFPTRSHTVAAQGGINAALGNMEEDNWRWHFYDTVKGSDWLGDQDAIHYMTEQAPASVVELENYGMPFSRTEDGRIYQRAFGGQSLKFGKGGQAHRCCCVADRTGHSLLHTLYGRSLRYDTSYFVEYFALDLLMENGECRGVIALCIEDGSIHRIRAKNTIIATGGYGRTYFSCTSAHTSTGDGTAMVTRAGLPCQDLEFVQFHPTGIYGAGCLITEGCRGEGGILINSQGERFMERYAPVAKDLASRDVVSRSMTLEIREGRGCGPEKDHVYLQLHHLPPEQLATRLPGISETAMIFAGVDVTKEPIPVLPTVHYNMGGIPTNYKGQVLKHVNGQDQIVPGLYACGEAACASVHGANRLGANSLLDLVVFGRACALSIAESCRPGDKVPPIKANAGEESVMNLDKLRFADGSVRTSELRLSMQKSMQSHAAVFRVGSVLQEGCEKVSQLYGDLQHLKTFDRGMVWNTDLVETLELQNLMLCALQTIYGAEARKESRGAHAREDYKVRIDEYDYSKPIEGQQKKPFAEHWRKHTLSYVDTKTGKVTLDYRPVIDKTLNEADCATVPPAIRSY
T1 sequence (P21913 31-282): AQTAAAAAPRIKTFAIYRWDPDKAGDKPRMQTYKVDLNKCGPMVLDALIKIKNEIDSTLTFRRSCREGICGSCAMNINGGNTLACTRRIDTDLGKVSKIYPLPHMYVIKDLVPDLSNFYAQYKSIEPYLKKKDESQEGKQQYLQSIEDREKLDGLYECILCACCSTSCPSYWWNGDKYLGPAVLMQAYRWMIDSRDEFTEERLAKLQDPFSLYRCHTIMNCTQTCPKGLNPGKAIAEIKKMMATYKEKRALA
T1 sequence (Q641Z9 1-169): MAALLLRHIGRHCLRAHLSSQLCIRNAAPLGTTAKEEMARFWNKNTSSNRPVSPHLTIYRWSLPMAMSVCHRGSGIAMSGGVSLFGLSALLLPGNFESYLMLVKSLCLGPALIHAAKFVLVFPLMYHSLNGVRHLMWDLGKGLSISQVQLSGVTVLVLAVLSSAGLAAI
T1 sequence (Q6PCT8 57-159): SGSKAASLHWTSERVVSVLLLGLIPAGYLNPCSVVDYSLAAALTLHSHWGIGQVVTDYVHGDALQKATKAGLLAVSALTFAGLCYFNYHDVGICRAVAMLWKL

As to `O=S1(=O)NC(=S)Nc2ccc(F)cc21` [Compound 12a, 7-fluoro-3-thioxo-3,4-dihydro-2H-1,2,4-benzothiadiazine 1,1-dioxide], the “effect on MDA-MB 468 TNBC cell viability” value in assay [1] was “no reduction of cell viability”. For the same compound, the “inhibition of VEGF-induced HUVEC proliferation (in words)” value (“inhibition … (in words)” below) in assay [2] (VEGF 10 ng/mL) is on record as “no appreciable inhibition”. For the same compound, the inhibition at 20 µM in assay [2] (setting [6]) came out at 50 ± 35%.
The like results for `CC(C)C(C)NC1=NS(=O)(=O)c2cc(F)ccc2N1` (centres unmarked) [Compound 15a, 7-fluoro-3-((3-methylbutan-2-yl)amino)-4H-benzo[e][1,2,4]thiadiazine 1,1-dioxide] were, in that order, “substantially less active”, “no appreciable inhibition” and 76 ± 18%.
As for `O=S1(=O)N=C(NCCc2ccccc2)Nc2ccc(Br)cc21` [Compound 18c, 7-bromo-3-(phenethylamino)-4H-benzo[e][1,2,4]thiadiazine 1,1-dioxide], the “effect on MDA-MB 468 TNBC cell viability” value in assay [1] was “potent activity”. In addition, in assay [2] (HUVEC, 48 h), the inhibition at 20 µM was 47 ± 24%.
As a reminder, the IC50 is the point on the concentration scale where inhibition reaches its midpoint. Take `COc1ccc(CNC2=NS(=O)(=O)c3cc(Br)ccc3N2)cc1` [Compound 20c, 7-bromo-3-((4-methoxybenzyl)amino)-4H-benzo[e][1,2,4]thiadiazine 1,1-dioxide]: in assay [3], the inhibition at 100 µM turned out to be 64%. Also, the half-inhibitory concentration (IC50) in assay [3] (isolated rat heart mitochondria, mean ±SD of n = 4, read-out: CII IC50) came to 79.7 µM. The cytotoxicity at 100 µM in assay [4] amounted to 41%. In addition, the “effect on MDA-MB 468 TNBC cell viability” value in assay [1] is on record as “potent activity”.
As to `COc1ccc(CNC2=NS(=O)(=O)c3ccccc3N2)cc1` [Compound 20d, 3-((4-methoxybenzyl)amino)-4H-benzo[e][1,2,4]thiadiazine 1,1-dioxide], the “effect on MDA-MB 468 TNBC cell viability” value in assay [1] was “no reduction of cell viability”.
`O=S1(=O)N=C(NC2CCCC2)Nc2cc(Cl)ccc21` [Compound 22b, 6-chloro-3-(cyclopentylamino)-4H-benzo[e][1,2,4]thiadiazine 1,1-dioxide]: the cytotoxicity at 100 µM in assay [4] was about 35%. Moreover, 148 ± 26.3 µM corresponded to half-maximal inhibition in assay [1] (IC50).
As for `O=S1(=O)N=C(NCCCc2ccccc2)Nc2ccc(F)cc21` [Compound 23a, 7-fluoro-3-((3-phenylpropyl)amino)-4H-benzo[e][1,2,4]thiadiazine 1,1-dioxide], the inhibition at 100 µM in assay [3] is 14%. The “effect on MDA-MB 468 TNBC cell viability” value in assay [1] is listed as “almost complete amelioration of cell viability”. The “% Inhibition of Proliferation” value in assay [2] (20 μM compound, VEGF 10 ng/mL, HUVEC, 48 h, relative to VEGF treated cells, mean ± SEM n = 3) was “inactive”. In assay [2] (VEGF 10 ng/mL), the “inhibition … (in words)” value is on record as “no appreciable inhibition”. For the same compound, the inhibition at 20 µM in assay [2] (setting [6]) was found to be 0%.
For the compound `COc1ccccc1CNC1=NS(=O)(=O)c2cc(F)ccc2N1` [Compound 26a, 7-fluoro-3-((2-methoxybenzyl)amino)-4H-benzo[e][1,2,4]thiadiazine 1,1-dioxide], the inhibition at 100 µM in assay [3] turned out to be 37%. Moreover, the “effect on MDA-MB 468 TNBC cell viability” value in assay [1] is listed as “almost complete amelioration of cell viability”. Moreover, the “inhibition … (in words)” value in assay [2] (VEGF 10 ng/mL) is reported as “no appreciable inhibition”. Further, the inhibition at 20 µM in assay [2] (setting [6]) amounted to 29 ± 33%.
For the compound `O=S1(=O)N=C(NCc2ccc(F)cc2F)Nc2cc(Cl)ccc21` [Compound 29b, 6-chloro-3-((2,4-difluorobenzyl)amino)-4H-benzo[e][1,2,4]thiadiazine 1,1-dioxide], the concentration for half-maximal inhibition (IC50) was 84.6 µM in assay [1] and 129 ± 12.2 µM in assay [5]. Also, in assay [2] (VEGF 10 ng/mL), the “inhibition … (in words)” value is recorded as “suppressed HUVEC proliferation; also recorded: enhanced activity”. The inhibition at 20 µM in assay [2] (setting [6]) amounted to 167 ± 14%.
Turning to `O=S1(=O)N=C(NCCc2c[nH]c3ccccc23)Nc2ccc(F)cc21` [Compound 36a, 3-((2-(1H-indol-3-yl)ethyl)amino)-7-fluoro-4H-benzo[e][1,2,4]thiadiazine 1,1-dioxide], in assay [3], the inhibition at 100 µM was determined as 17%. The cytotoxicity at 100 µM in assay [4] was 30%. The “effect on MDA-MB 468 TNBC cell viability” value in assay [1] is listed as “almost complete amelioration of cell viability”. Moreover, the “inhibition … (in words)” value in assay [2] (VEGF 10 ng/mL) is recorded as “no appreciable inhibition”. Besides, the inhibition at 20 µM in assay [2] (setting [6]) came to 41 ± 26%.
`O=S1(=O)N=C(NCc2ccccc2OC(F)(F)F)Nc2cc(Cl)ccc21` [Compound 43b, 6-Chloro-3-((2-(trifluoromethoxy)benzyl)amino)-4H-benzo[e][1,2,4]thiadiazine 1,1-dioxide]: the 50% inhibitory concentration (IC50) was 14.9 µM in assay [1] and 30.5 µM in assay [5]. Besides, the “inhibition … (in words)” value in assay [2] (VEGF 10 ng/mL) is “suppressed HUVEC proliferation; also recorded: enhanced activity”. Moreover, the inhibition at 20 µM in assay [2] (setting [6]) came out at 124 ± 4%.
In the case of `CC(C)NC1=NS(=O)(=O)c2ccccc2N1C` [Compound 43d, 3-(isopropylamino)-4-methyl-4H-benzo[e][1,2,4]thiadiazine 1,1-dioxide], the “effect on MDA-MB 468 TNBC cell viability” value in assay [1] is “no reduction of cell viability”.
With `COc1ccc(CNC2=NS(=O)(=O)c3cc(Cl)ccc3N2)cc1` [Compound 56e, 7-Chloro-3-((4-methoxybenzyl)amino)-4H-benzo[e][1,2,4]thiadiazine 1,1-dioxide], in assay [1], half-maximal inhibition (IC50) required 62.9 ± 4.2 µM. The “inhibition … (in words)” value in assay [2] (VEGF 10 ng/mL) is given as “suppressed HUVEC proliferation; also recorded: enhanced activity”. The inhibition at 20 µM in assay [2] (setting [6]) was 91 ± 15%.
`O=S1(=O)N=C(NCCCc2ccccc2)Nc2ccc(Cl)cc21` [Compound 60e, 7-Chloro-3-((3-phenylpropyl)amino)-4H-benzo[e][1,2,4]thiadiazine 1,1-dioxide]: the half-inhibitory concentration (IC50) in assay [5] was 30.9 µM. In assay [2] (VEGF 10 ng/mL), the “inhibition … (in words)” value is reported as “suppressed HUVEC proliferation; also recorded: enhanced activity”. The inhibition at 20 µM in assay [2] (setting [6]) is 92 ± 15%.
In turn, `Cc1ccc(CNC2=NS(=O)(=O)c3cc(Cl)ccc3N2)cc1` [Compound 61e, 7-Chloro-3-((4-methylbenzyl)amino)-4H-benzo[e][1,2,4]thiadiazine 1,1-dioxide] yielded an IC50 in assay [1] of 43.1 µM. In addition, in assay [2] (VEGF 10 ng/mL), the “inhibition … (in words)” value was “suppressed HUVEC proliferation; also recorded: enhanced activity”. The inhibition at 20 µM in assay [2] (setting [6]) worked out at 119 ± 10%.
In the case of `O=S1(=O)N=C(NCc2ccc(F)cc2F)Nc2ccc(Cl)cc21` [Compound 63e, 7-Chloro-3-((2,4-difluorobenzyl)amino)-4H-benzo[e][1,2,4]thiadiazine 1,1-dioxide], the IC50 was found to be 45.5 µM in assay [1] and 58.9 ± 13.7 µM in assay [5]. Further, in assay [2] (VEGF 10 ng/mL), the “inhibition … (in words)” value is “suppressed HUVEC proliferation; also recorded: enhanced activity”. In addition, the inhibition at 20 µM in assay [2] (setting [6]) stood at 133 ± 12%.
As for `O=S1(=O)N=C(NCCCCc2ccccc2)Nc2ccc(Cl)cc21` [Compound 65e, 7-Chloro-3-((4-phenylbutyl)amino)-4H-benzo[e][1,2,4]thiadiazine 1,1-dioxide], in assay [5], the IC50 worked out at 23.4 µM. For the same compound, the “inhibition … (in words)” value in assay [2] (VEGF 10 ng/mL) was “suppressed HUVEC proliferation; also recorded: enhanced activity”. Also, the inhibition at 20 µM in assay [2] (setting [6]) turned out to be 116 ± 16%.
As for `CNC(=O)c1cc(Oc2ccc(NC(=O)Nc3ccc(Cl)c(C(F)(F)F)c3)cc2)ccn1` [Sorafenib, reference compound], the IC50 in assay [1] is 7.31 ± 1.9 µM; in assay [5], 2.95 ± 0.1 µM.
